Activity calls are given as the source filed them. No rule for the calls is given here.
System: Vero E6 cytotoxicity, luminescence viability
Experiment: PubChem AID 435015
Details: at 20 µM; active compounds read high

Compound: CC(C)(C)NC(=O)C(c1cccnc1)N(C(=O)c1ccco1)c1ccc(C(C)(C)C)cc1 (stereo unspecified)
- inhibition: 23% (inactive)
